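Cells were grown in 96-well plates and exposed to each compound for 48 hours at five concentrations; endpoints were interpolated linearly between bracketing concentrations, or set to the highest concentration if not reached. TGI: concentration producing complete growth inhibition.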
Experiments:
Assay in all cases: NCI anticancer screen, dose series, 48 h
HL-60(TB) leukemia = test system: HL-60(TB) leukemia
TK-10 renal = test system: TK-10 renal
SK-OV-3 ovarian = test system: SK-OV-3 ovarian
NCI-H226 lung = test system: NCI-H226 lung
SF-268 CNS = test system: SF-268 CNS
PC-3 prostate = test system: PC-3 prostate
LOX IMVI melanoma = test system: LOX IMVI melanoma
786-0 renal = test system: 786-0 renal
HS 578T breast = test system: HS 578T breast
HT29 colon = test system: HT29 colon
HOP-92 NSCLC = test system: HOP-92 NSCLC
MALME-3M melanoma = test system: MALME-3M melanoma
A498 renal = test system: A498 renal
SK-MEL-28 melanoma = test system: SK-MEL-28 melanoma
NCI-H460 lung = test system: NCI-H460 lung
SW-620 colon = test system: SW-620 colon
SK-MEL-5 melanoma = test system: SK-MEL-5 melanoma
SNB-19 CNS = test system: SNB-19 CNS
SF-295 CNS = test system: SF-295 CNS
T-47D breast = test system: T-47D breast
UO-31 renal = test system: UO-31 renal
UACC-257 melanoma = test system: UACC-257 melanoma
HOP-62 NSCLC = test system: HOP-62 NSCLC
DU-145 prostate = test system: DU-145 prostate
HCT-15 colon = test system: HCT-15 colon
RPMI-8226 leukemia = test system: RPMI-8226 leukemia
SN12C renal = test system: SN12C renal
MCF7 breast = test system: MCF7 breast
UACC-62 melanoma = test system: UACC-62 melanoma
NCI/ADR-RES ovarian = test system: NCI/ADR-RES ovarian
U251 CNS = test system: U251 CNS
OVCAR-5 ovarian = test system: OVCAR-5 ovarian
SNB-75 CNS = test system: SNB-75 CNS
M14 melanoma = test system: M14 melanoma
IGROV1 ovarian = test system: IGROV1 ovarian
MOLT-4 leukemia = test system: MOLT-4 leukemia
CAKI-1 renal = test system: CAKI-1 renal
SR leukemia = test system: SR leukemia
HCT-116 colon = test system: HCT-116 colon
NCI-H522 lung = test system: NCI-H522 lung
MDA-MB-231 breast = test system: MDA-MB-231 breast
ACHN renal = test system: ACHN renal
NCI-H23 lung = test system: NCI-H23 lung
CCRF-CEM leukemia = test system: CCRF-CEM leukemia
SF-539 CNS = test system: SF-539 CNS
MDA-MB-435 = test system: MDA-MB-435
OVCAR-8 ovarian = test system: OVCAR-8 ovarian
OVCAR-4 ovarian = test system: OVCAR-4 ovarian
RXF 393 renal = test system: RXF 393 renal
A549 NSCLC = test system: A549 NSCLC
HCC-2998 colon = test system: HCC-2998 colon
SK-MEL-2 melanoma = test system: SK-MEL-2 melanoma
BT-549 breast = test system: BT-549 breast
COLO 205 colon = test system: COLO 205 colon
KM12 colon = test system: KM12 colon
MDA-N = test system: MDA-N
OVCAR-3 ovarian = test system: OVCAR-3 ovarian
K-562 leukemia = test system: K-562 leukemia
EKVX NSCLC = test system: EKVX NSCLC

In the case of `COc1ccc(C2C(=O)c3ccc(OC)cc3OC2c2cccnc2)cc1` (centres undefined), the TGI (HL-60(TB) leukemia) is reported as over 100 µM, the TGI (TK-10 renal) is reported as over 100 µM and the TGI (SK-OV-3 ovarian) is reported as over 100 µM. It also gave a TGI (NCI-H226 lung) of over 100 µM, a TGI (SF-268 CNS) of over 100 µM and a TGI (PC-3 prostate) of over 100 µM. It also gave a TGI (LOX IMVI melanoma) of over 100 µM, a TGI (786-0 renal) of over 100 µM and a TGI (HS 578T breast) of over 100 µM. The TGI (HT29 colon) was over 100 µM, the TGI (HOP-92 NSCLC) was 97.1 µM and the TGI (MALME-3M melanoma) was over 100 µM. For the same molecule, the TGI (A498 renal) was over 100 µM, the TGI (SK-MEL-28 melanoma) was over 100 µM and the TGI (NCI-H460 lung) was over 100 µM. It also gave a TGI (SW-620 colon) of over 100 µM, a TGI (SK-MEL-5 melanoma) of over 100 µM and a TGI (SNB-19 CNS) of over 100 µM. It also gave a TGI (SF-295 CNS) of over 100 µM, a TGI (T-47D breast) of over 100 µM and a TGI (UO-31 renal) of over 100 µM. It also gave a TGI (UACC-257 melanoma) of over 100 µM, a TGI (HOP-62 NSCLC) of over 100 µM and a TGI (DU-145 prostate) of over 100 µM. The TGI (HCT-15 colon) was over 100 µM, the TGI (RPMI-8226 leukemia) was over 100 µM and the TGI (SN12C renal) was over 100 µM. The TGI (MCF7 breast) was over 100 µM, the TGI (UACC-62 melanoma) was over 100 µM and the TGI (NCI/ADR-RES ovarian) was over 100 µM. The TGI (U251 CNS) was over 100 µM, the TGI (OVCAR-5 ovarian) was over 100 µM and the TGI (SNB-75 CNS) was over 100 µM. For the same molecule, the TGI (M14 melanoma) was over 100 µM, the TGI (IGROV1 ovarian) was over 100 µM and the TGI (MOLT-4 leukemia) was over 100 µM. It also gave a TGI (CAKI-1 renal) of over 100 µM, a TGI (SR leukemia) of over 100 µM and a TGI (HCT-116 colon) of over 100 µM. For the same molecule, the TGI (NCI-H522 lung) was over 100 µM, the TGI (MDA-MB-231 breast) was over 100 µM and the TGI (ACHN renal) was over 100 µM. The TGI (NCI-H23 lung) was over 100 µM, the TGI (CCRF-CEM leukemia) was over 100 µM and the TGI (SF-539 CNS) was over 100 µM. The TGI (MDA-MB-435) was over 100 µM, the TGI (OVCAR-8 ovarian) was over 100 µM and the TGI (OVCAR-4 ovarian) was over 100 µM. The TGI (RXF 393 renal) was over 100 µM, the TGI (A549 NSCLC) was over 100 µM and the TGI (HCC-2998 colon) was over 100 µM. For the same molecule, the TGI (SK-MEL-2 melanoma) was over 100 µM, the TGI (BT-549 breast) was over 100 µM and the TGI (COLO 205 colon) was over 100 µM. It also gave a TGI (KM12 colon) of over 100 µM, a TGI (MDA-N) of over 100 µM and a TGI (OVCAR-3 ovarian) of over 100 µM. The TGI (K-562 leukemia) was over 100 µM and the TGI (EKVX NSCLC) was over 100 µM.
